Laboratory results: PMC6984391, “Anion carriers as potential treatments for cystic fibrosis: transport in cystic fibrosis cells, and additivity to channel-targeting drugs” (Chemical Science, 2019)

Assay: Cl-/NO3- exchange in LUVs with preincorporated anionophore (lucigenin method)
Assay type: biochemical
Conditions: transporter preincorporated in LUVs (70% POPC + 30% cholesterol), 25 mM NaCl gradient, 225 mM NaNO3; new compound or new data
Protocol: The four new anionophores were tested for affinity to Cl^– (in CHCl3 and DMSO, with tetra-alkylammonium counter-ions), and for anion transport (Cl^–/NO3^– exchange) when preloaded into 200 nm large unilamellar vesicles (LUVs). The latter assay was performed using the well-established “lucigenin method”[30] in which Cl^– influx into vesicles is followed through quenching of fluorescence from the halide-sensitive fluorophore lucigenin. The results are listed in Table 1, accompanied by corresponding values for the previously-reported compounds where available. […] In this test, anion transport by anionophores delivered externally to LUVs is compared with their action when preloaded into LUV membranes.[24],[29],[32]
3. Transport studies in vesicles
Transport measurements in vesicles with preincorporated anionophores.
1-Palmitoyl-2-oleoyl-sn-glycero-3-phosphocholine (POPC) was obtained from Avanti® Polar Lipids, Inc. An extrusion apparatus and 200 nm polycarbonate membranes were obtained from GC Technology Ltd. All lipid and receptor solutions were prepared using chloroform that had been deacidified by passage through a flash chromatography column containing basic alumina, and all aqueous solutions were prepared using deionised water that had been passed through a Millipore filtration system.
POPC and cholesterol solutions (~10 mM) in deacidified chloroform were combined with a solution of transporter in methanol or deacidified chloroform in a 5 mL round bottomed flask.
Volumes of the aliquots were calculated from the concentrations of the lipid solution to obtain a POPC to cholesterol ratio of 7:3 (for instance by combining 4.20 µmol POPC and 1.80 µmol cholesterol). The ratio of anionophore to lipid (POPC + cholesterol) was either 1:2500 or 1:25000, as specified in the experiments. The solvents from the lipid/receptor mixture were evaporated under a stream of N2 and the lipid film was dried under high vacuum for 1 h. The residue was hydrated with 500 µL of an aqueous solution of 10,10'-dimethyl-9,9'-biacridinium nitrate (lucigenin, 0.8 mM) and NaNO3 (225 mM), sonicated for 30 s and stirred for 1 h to give heterogeneous vesicles. Multilamellar vesicles were disrupted by 10 freeze-thaw cycles and then the solution was diluted to 1 mL (by adding 0.5 mL of 225 mM NaNO3) and carefully extruded (29 times) through a polycarbonate membrane (200 nm pore size) to give a uniform distribution of LUVs with an average diameter of ~200 nm.2 The external lucigenin was removed by passing the solution though a size exclusion column (containing ~2 g Sephadex 50G, eluted with 225 mM NaNO3). The collected vesicles were further diluted with NaNO3 solution (225 mM) to obtain a vesicle solution with 0.4 mM lipid concentration. 3.00 mL of this vesicle solution was placed in a quartz cuvette with a small stir bar and the fluorescence intensity (excitation at 450 nm, emission at 535 nm) was measured over time at 25 °C, using a PerkinElmer LS45 fluorescence spectrometer. 75 µL of aqueous NaCl (1.0 M in 225 mM NaNO3, to give an overall external chloride concentration of 25 mM) was added ~30 seconds after the start of the experiment and the fluorescence intensity was measured for another 14 […]
Fluorescence data were collected for at least four replicate experiments. The plateau (before addition of chloride) and the vertical drop (the first 1-2.5 seconds after chloride addition, due to quenching of external lucigenin) were removed. Next the data were normalized: all fluorescence values (F) were divided by the fluorescence value before addition of chloride (F0).
Initial rates (I) were obtained from fluorescence -decay curves (0-500 s) by fitting their inverse (F0/F) to a double exponential decay function:
Differentiating this gives F = abe−bt + cde−dt […]
and substituting t = 0 gives the following equation for initial rate: I = ab + cd Specific initial rates [I] were obtained by dividing the initial rates by the anionophore to lipid […]

COCCOCCOC(=O)[C@]12CC[C@@H](NC(=O)Nc3ccc(C(F)(F)F)cc3)C[C@@H]1C[C@@H](NC(=O)Nc1ccc(C(F)(F)F)cc1)CC2 [Compound 9]
Specific initial rate [I]: 9 s^–1

COCCOCCOC(=O)[C@]12CC[C@@H](NC(=O)Nc3cc(C(F)(F)F)cc(C(F)(F)F)c3)C[C@@H]1C[C@@H](NC(=O)Nc1cc(C(F)(F)F)cc(C(F)(F)F)c1)CC2 [Compound 10]
Specific initial rate [I]: 19 s^–1

CCOC(=O)[C@]12CC[C@@H](NC(=S)Nc3ccc([N+](=O)[O-])cc3)C[C@@H]1C[C@@H](NC(=S)Nc1ccc([N+](=O)[O-])cc1)CC2 [Compound 12]
Specific initial rate [I]: 310 s^–1

CCCCCCCCOC(=O)[C@]12CC[C@@H](NC(=S)Nc3ccc([N+](=O)[O-])cc3)C[C@@H]1C[C@@H](NC(=S)Nc1ccc([N+](=O)[O-])cc1)CC2 [Compound 13]
Specific initial rate [I]: 370 s^–1

FC(F)(F)c1ccc(NC(=S)NCCN(CCNC(=S)Nc2ccc(C(F)(F)F)cc2)CCNC(=S)Nc2ccc(C(F)(F)F)cc2)cc1 [Compound 18]
Specific initial rate [I]: 36 ^b s^–1

FC(F)(F)c1cc(NC(=S)NCCN(CCNC(=S)Nc2cc(C(F)(F)F)cc(C(F)(F)F)c2)CCNC(=S)Nc2cc(C(F)(F)F)cc(C(F)(F)F)c2)cc(C(F)(F)F)c1 [Compound 19]
Specific initial rate [I]: 590 ^b s^–1
